Structures can show the parent of a compound that is named as a salt.
Key:
Format in all cases: in vivo
[1] = tested on: Cyperus iria L. (rice flatsedge, CYPIR); experiment: Postemergence herbicidal activity under field conditions in rice, visual weed control
Procedure: (§1) These trials were conducted under field conditions in Ibague, Colombia; Geisenbrunn, Germany; and Montarges, France. Trial sites were located in commercially grown fields of common rice (Oryza sativa) or permanent pastures. The rice and pasture crops were grown using normal cultural practices for fertilization, seeding, and maintenance to ensure good growth of the crop and the weeds. The trials were conducted using normal research methodology. Trial plots were 2-3 meters (m) wide by 6 m long. All treatments were applied using a randomized complete block trial design with 3 to 4 replications per treatment. The trial sites had naturally occurring populations of weeds. The weed spectrum included, but was not limited to, Cyperus iria L. (rice flatsedge, CYPIR), Eclipta prostrata (L.) L. (eclipta, ECLAL), Ludwigia linifolia (ludwigia, LUDLI), Taraxacum officinale G. H. Weber ex Wiggers (dandelion, TAROF), Rumex obtusifolius L. (broadleaf dock, RUMOB) and Urtica dioica L. (common nettle, URTDI). The plots were treated with a postemergence foliar application 15 to 20 days after emergence of the rice or during the normal timing of herbicide application used for weed control in pastures/grasslands.
(§2) Treatments consisted of tank mixes of commercially available formulations of aminopyralid triisopropanolammonium salt (MILESTONE 240SL), triclopyr butotyl (GARLON4 480EC) and an experimental formulation of the aminopyralid potassium salt (GF-389), with all rice treatments tankmixed with adjuvant (CARRIER 80EC) at 0.5% volume per volume (vol/vol) but no adjuvant was used in any of the pasture treatments. The application volume was 200 liters per hectare (L/ha) of water. All applications were made using precision gas hand sprayers using a 2 m boom using flat fan (8002) nozzles to broadcast the treatments over the top of the target crop (rice and pastures) and weeds.
(§3) The treated plots and control plots were rated blind at various intervals after application. Ratings were based of Percent (%) Visual weed control, where 0 corresponds to no injury and 100 corresponds to complete kill.
(§4) Colby's equation was used to determine the herbicidal effects expected from the mixtures (Colby, S. R. Calculation of the synergistic and antagonistic response of herbicide combinations. Weeds 1967 15, 20-22).
(§5) The following equation was used to calculate the expected activity of mixtures containing two active ingredients, A and B:
(§6) A=observed efficacy of active ingredient A at the same concentration as used in the mixture;
(§7) B=observed efficacy of active ingredient B at the same concentration as used in the mixture.

[2] = tested on: Eclipta prostrata (L.) L. (eclipta, ECLAL); experiment: as above
Procedure: as §1, §2, §3, §4, §5, §6, §7

[3] = tested on: Ludwigia linifolia (ludwigia, LUDLI); experiment: as above
Procedure: as §1, §2, §3, §4, §5, §6, §7

[4] = tested on: Urtica dioica L. (common nettle, URTDI); experiment: Postemergence herbicidal activity under field conditions in pastures, visual weed control
Procedure: as §1, §2, §3, §4, §5, §6, §7

[5] = tested on: Rumex obtusifolius L. (broadleaf dock, RUMOB); experiment: as above
Procedure: as §1, §2, §3, §4, §5, §6, §7

[6] = tested on: Taraxacum officinale G. H. Weber ex Wiggers (dandelion, TAROF); experiment: as above; conditions: for Visual Weed Control (%) TAROF 178 DAA Obs: first 178 DAA column; for Visual Weed Control (%) TAROFI 178 DAA Obs: second 178 DAA column
Procedure: as §1, §2, §3, §4, §5, §6, §7

## Nc1cc(Cl)nc(C(=O)O)c1Cl [Aminopyralid triisopropanolammonium salt, 4-amino-3,6-dichloro-2-pyridinecarboxylic acid]
[1]; aminopyralid 8 g ae/ha alone
  Visual Weed Control (%) CYPIR 11 DAA Obs: 3%
  Visual Weed Control (%) CYPIR 18 DAA Obs: 8%
[1]; aminopyralid 24 g ae/ha alone
  Visual Weed Control (%) CYPIR 11 DAA Obs: 23%
[1]; aminopyralid 16 g ae/ha alone
  Visual Weed Control (%) CYPIR 18 DAA Obs: 25%
[2]; aminopyralid 8 g ae/ha alone
  Visual Weed Control (%) ECLAL 11 DAA Obs: 76%
[3]; aminopyralid 8 g ae/ha alone
  Visual Weed Control (%) LUDLI 11 DAA Obs: 73%

## O=C(O)COc1nc(Cl)c(Cl)cc1Cl [Triclopyr, 2-[(3,5,6-trichloro-2-pyridinyl)oxy]acetic acid]
[4]; triclopyr 240 g ae/ha alone
  Visual Weed Control (%) URTDI 342 DAA Obs: 33%
[5]; triclopyr 480 g ae/ha alone
  Visual Weed Control (%) RUMOB 13 DAA Obs: 57%
[6]; TAROF, triclopyr 240 g ae/ha alone
  Visual Weed Control (%) TAROF 13 DAA Obs: 27%
[6]; TAROF, triclopyr 960 g ae/ha alone
  Visual Weed Control (%) TAROF 13 DAA Obs: 38%
[6]; triclopyr 240 g ae/ha alone
  Visual Weed Control (%) TAROF 122 DAA Obs: 0- %
[6]; triclopyr 480 g ae/ha alone
  Visual Weed Control (%) TAROF 178 DAA Obs: 0%
[6]; triclopyr 960 g ae/ha alone
  Visual Weed Control (%) TAROFI 178 DAA Obs: 47%
[6]; 378 DAA, TAROF, triclopyr 240 g ae/ha alone
  Visual Weed Control (%) TAROF 378 DAA Obs: 10%
[6]; 378 DAA, TAROF, triclopyr 480 g ae/ha alone (value printed in Exp* column)
  Visual Weed Control (%) TAROF 378 DAA Exp*: 30%
[1]; triclopyr 24 g ae/ha alone
  Visual Weed Control (%) CYPIR 11 DAA Obs: 0%
  Visual Weed Control (%) CYPIR 18 DAA Obs: 0%
[1]; triclopyr 72 g ae/ha alone
  Visual Weed Control (%) CYPIR 11 DAA Obs: 1%
[1]; triclopyr 48 g ae/ha alone
  Visual Weed Control (%) CYPIR 18 DAA Obs: 6%
[2]; triclopyr 24 g ae/ha alone
  Visual Weed Control (%) ECLAL 11 DAA Obs: 6%
[3]; triclopyr 24 g ae/ha alone
  Visual Weed Control (%) LUDLI 11 DAA Obs: 5%

## Nc1cc(Cl)nc(C(=O)O)c1Cl [Aminopyralid potassium salt, 4-amino-3,6-dichloro-2-pyridinecarboxylic acid]
[4]; aminopyralid 60 g ae/ha alone
  Visual Weed Control (%) URTDI 342 DAA Obs: 17%
[5]; aminopyralid 60 g ae/ha alone
  Visual Weed Control (%) RUMOB 13 DAA Obs: 82%
[6]; first TAROF column, aminopyralid 60 g ae/ha alone
  Visual Weed Control (%) TAROF 13 DAA Obs: 57%
[6]; second TAROF column, aminopyralid 60 g ae/ha alone
  Visual Weed Control (%) TAROF 13 DAA Obs: 45%
[6]; aminopyralid 60 g ae/ha alone
  Visual Weed Control (%) TAROF 122 DAA Obs: 80%
  Visual Weed Control (%) TAROF 178 DAA Obs: 73%
  Visual Weed Control (%) TAROFI 178 DAA Obs: 73%
[6]; 378 DAA, first TAROF column, aminopyralid 60 g ae/ha alone
  Visual Weed Control (%) TAROF 378 DAA Obs: 40%
[6]; 378 DAA, second TAROF column, aminopyralid 60 g ae/ha alone
  Visual Weed Control (%) TAROF 378 DAA Obs: 40%
